# Test results as given in PubChem BioAssay AID1845207 (Molecular Pharmacology Branch, DTP, NCI, 2023).
# Test system: NCI-H1876 tumor spheroid viability
# Test: Anticancer human tumor NCI-H1876 cell line growth inhibition;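 further: spheroids exposed to compounds for seven days before the viability read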;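 on viability, T/C: percent of DMSO vehicle control viability so 100% = vehicle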
# Settings: spheroids with HUVEC and MSC; for IC50: curve of first compound; for viability, T/C: stronger effect = lower value
# How it was run: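 Single agents and combinations were tested on spheroids built from tumor cells plus HUVEC and hMSC, at half-log dilutions starting at or near clinical Cmax, else 10 microM; final DMSO 0.25% (v/v).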
# [1] = second compound 0.003 µM, first compound 0.0316 µM
# [2] = second compound 0.003 µM, first compound 0.1 µM
# [3] = second compound 0.003 µM, first compound 0.316 µM
# [4] = second compound 0.003 µM, first compound 1 µM
# [5] = second compound 0.003 µM, first compound 3.16 µM
# [6] = second compound 0.003 µM, first compound 10 µM
# [7] = second compound 0.00949 µM, first compound 0.0316 µM
# [8] = second compound 0.00949 µM, first compound 0.1 µM
# [9] = second compound 0.00949 µM, first compound 0.316 µM
# [10] = second compound 0.00949 µM, first compound 1 µM
# [11] = second compound 0.00949 µM, first compound 3.16 µM
# [12] = second compound 0.00949 µM, first compound 10 µM
# [13] = second compound 0.03 µM, first compound 0.0316 µM
# [14] = second compound 0.03 µM, first compound 0.1 µM
# [15] = second compound 0.03 µM, first compound 0.316 µM
# [16] = second compound 0.03 µM, first compound 1 µM
# [17] = second compound 0.03 µM, first compound 3.16 µM
# [18] = second compound 0.03 µM, first compound 10 µM
# [19] = second compound 0.0949 µM, first compound 0.0316 µM
# [20] = second compound 0.0949 µM, first compound 0.1 µM
# [21] = second compound 0.0949 µM, first compound 0.316 µM
# [22] = second compound 0.0949 µM, first compound 1 µM
# [23] = second compound 0.0949 µM, first compound 3.16 µM
# [24] = second compound 0.0949 µM, first compound 10 µM
# [25] = second compound 0.3 µM, first compound 0.0316 µM
# [26] = second compound 0.3 µM, first compound 0.1 µM
# [27] = second compound 0.3 µM, first compound 0.316 µM
# [28] = second compound 0.3 µM, first compound 1 µM
# [29] = second compound 0.3 µM, first compound 3.16 µM
# [30] = second compound 0.3 µM, first compound 10 µM
smiles,measurement,setting,value
COc1cc(C)[nH]c(=O)c1CN1CCc2c(Cl)cc(C(OC)C3COC3)c(Cl)c2C1=O (stereo not given) + CC[C@@]1(O)C(=O)OCc2c1cc1n(c2=O)Cc2cc3c(CN(C)C)c(O)ccc3nc2-1,IC50,second compound 0.003 µM,> 10 µM
same,IC50,second compound 0.00949 µM,< 0.0316 µM
same,IC50,second compound 0.03 µM,< 0.0316 µM
same,IC50,second compound 0.0949 µM,< 0.0316 µM
same,IC50,second compound 0.3 µM,< 0.0316 µM
same,"viability, T/C",[1],92.3%
same,"viability, T/C",[2],88.3%
same,"viability, T/C",[3],82.6%
same,"viability, T/C",[4],79.3%
same,"viability, T/C",[5],80.6%
same,"viability, T/C",[6],73.7%
same,"viability, T/C",[7],32.3%
same,"viability, T/C",[8],19.7%
same,"viability, T/C",[9],19.2%
same,"viability, T/C",[10],19.4%
same,"viability, T/C",[11],17.3%
same,"viability, T/C",[12],18.6%
same,"viability, T/C",[13],3.49%
same,"viability, T/C",[14],3.03%
same,"viability, T/C",[15],3.24%
same,"viability, T/C",[16],2.91%
same,"viability, T/C",[17],3.73%
same,"viability, T/C",[18],3.6%
same,"viability, T/C",[19],2.58%
same,"viability, T/C",[20],2.48%
same,"viability, T/C",[21],2.58%
same,"viability, T/C",[22],2.45%
same,"viability, T/C",[23],2.45%
same,"viability, T/C",[24],3.12%
same,"viability, T/C",[25],2.06%
same,"viability, T/C",[26],2.39%
same,"viability, T/C",[27],2.29%
same,"viability, T/C",[28],1.79%
same,"viability, T/C",[29],2.16%
same,"viability, T/C",[30],2.06%
[2H]c1nc(C)nc([2H])c1-c1cc(NC[C@@H](C)c2cccc3c(C(=O)NC)ccnc23)ncn1 + CC[C@@]1(O)C(=O)OCc2c1cc1n(c2=O)Cc2cc3c(CN(C)C)c(O)ccc3nc2-1,IC50,second compound 0.003 µM,> 10 µM
same,IC50,second compound 0.00949 µM,< 0.0316 µM
same,IC50,second compound 0.03 µM,< 0.0316 µM
same,IC50,second compound 0.0949 µM,< 0.0316 µM
same,IC50,second compound 0.3 µM,< 0.0316 µM
same,"viability, T/C",[1],93.3%
same,"viability, T/C",[2],89.6%
same,"viability, T/C",[3],93.9%
same,"viability, T/C",[4],87.1%
same,"viability, T/C",[5],85.1%
same,"viability, T/C",[6],78.5%
same,"viability, T/C",[7],25.2%
same,"viability, T/C",[8],22.2%
same,"viability, T/C",[9],24%
same,"viability, T/C",[10],21.4%
same,"viability, T/C",[11],19.7%
same,"viability, T/C",[12],17.1%
same,"viability, T/C",[13],3.65%
same,"viability, T/C",[14],4.05%
same,"viability, T/C",[15],3.87%
same,"viability, T/C",[16],4.16%
same,"viability, T/C",[17],4.24%
same,"viability, T/C",[18],4.06%
same,"viability, T/C",[19],2.96%
same,"viability, T/C",[20],2.98%
same,"viability, T/C",[21],2.95%
same,"viability, T/C",[22],3.01%
same,"viability, T/C",[23],2.71%
same,"viability, T/C",[24],3.38%
same,"viability, T/C",[25],2.42%
same,"viability, T/C",[26],2.48%
same,"viability, T/C",[27],2.48%
same,"viability, T/C",[28],2.74%
same,"viability, T/C",[29],2.32%
same,"viability, T/C",[30],2.21%
O=C(c1cc(Cc2n[nH]c(=O)c3ccccc23)ccc1F)N1CCN(C(=O)C2CC2)CC1 + Cn1nnc2c(C(N)=O)ncn2c1=O,IC50,second compound 1 µM,6.95 µM
same,IC50,second compound 3.16 µM,25.4 µM
same,IC50,second compound 10 µM,9.73 µM
same,IC50,second compound 31.6 µM,2.7 µM
same,IC50,second compound 100 µM,< 0.0949 µM
same,"viability, T/C","second compound 1 µM, first compound 0.0949 µM",85.1%
same,"viability, T/C","second compound 1 µM, first compound 0.3 µM",69.8%
same,"viability, T/C","second compound 1 µM, first compound 0.949 µM",77.8%
same,"viability, T/C","second compound 1 µM, first compound 3 µM",64.6%
same,"viability, T/C","second compound 1 µM, first compound 9.49 µM",32.2%
same,"viability, T/C","second compound 1 µM, first compound 30 µM",56.9%
same,"viability, T/C","second compound 3.16 µM, first compound 0.0949 µM",89.8%
same,"viability, T/C","second compound 3.16 µM, first compound 0.3 µM",82.4%
same,"viability, T/C","second compound 3.16 µM, first compound 0.949 µM",72.7%
same,"viability, T/C","second compound 3.16 µM, first compound 3 µM",61.5%
same,"viability, T/C","second compound 3.16 µM, first compound 9.49 µM",65.2%
same,"viability, T/C","second compound 3.16 µM, first compound 30 µM",45.1%
same,"viability, T/C","second compound 10 µM, first compound 0.0949 µM",79.2%
same,"viability, T/C","second compound 10 µM, first compound 0.3 µM",70.3%
same,"viability, T/C","second compound 10 µM, first compound 0.949 µM",64.6%
same,"viability, T/C","second compound 10 µM, first compound 3 µM",53.7%
same,"viability, T/C","second compound 10 µM, first compound 9.49 µM",60%
same,"viability, T/C","second compound 10 µM, first compound 30 µM",17.2%
same,"viability, T/C","second compound 31.6 µM, first compound 0.0949 µM",75.3%
same,"viability, T/C","second compound 31.6 µM, first compound 0.3 µM",69.4%
same,"viability, T/C","second compound 31.6 µM, first compound 0.949 µM",53.3%
same,"viability, T/C","second compound 31.6 µM, first compound 3 µM",55.7%
same,"viability, T/C","second compound 31.6 µM, first compound 9.49 µM",32.9%
same,"viability, T/C","second compound 31.6 µM, first compound 30 µM",15.8%
same,"viability, T/C","second compound 100 µM, first compound 0.0949 µM",54.7%
same,"viability, T/C","second compound 100 µM, first compound 0.3 µM",31.5%
same,"viability, T/C","second compound 100 µM, first compound 0.949 µM",29.6%
same,"viability, T/C","second compound 100 µM, first compound 3 µM",62.5%
same,"viability, T/C","second compound 100 µM, first compound 9.49 µM",18.8%
same,"viability, T/C","second compound 100 µM, first compound 30 µM",15.7%
